# Source: ChEMBL document CHEMBL1129990, “Effect of N9-methylation and bridge atom variation on the activity of 5-substituted 2,4-diaminopyrrolo[2,3-d]pyrimidines against dihydrofolate reductases from Pneumocystis carinii and Toxoplasma gondii” (J Med Chem, 1997)
# Experiments:
# [1] = biological target: T1, Bifunctional dihydrofolate reductase-thymidylate synthase (Toxoplasma gondii, UniProt Q07422)
# T1 sequence (Q07422 whole entry): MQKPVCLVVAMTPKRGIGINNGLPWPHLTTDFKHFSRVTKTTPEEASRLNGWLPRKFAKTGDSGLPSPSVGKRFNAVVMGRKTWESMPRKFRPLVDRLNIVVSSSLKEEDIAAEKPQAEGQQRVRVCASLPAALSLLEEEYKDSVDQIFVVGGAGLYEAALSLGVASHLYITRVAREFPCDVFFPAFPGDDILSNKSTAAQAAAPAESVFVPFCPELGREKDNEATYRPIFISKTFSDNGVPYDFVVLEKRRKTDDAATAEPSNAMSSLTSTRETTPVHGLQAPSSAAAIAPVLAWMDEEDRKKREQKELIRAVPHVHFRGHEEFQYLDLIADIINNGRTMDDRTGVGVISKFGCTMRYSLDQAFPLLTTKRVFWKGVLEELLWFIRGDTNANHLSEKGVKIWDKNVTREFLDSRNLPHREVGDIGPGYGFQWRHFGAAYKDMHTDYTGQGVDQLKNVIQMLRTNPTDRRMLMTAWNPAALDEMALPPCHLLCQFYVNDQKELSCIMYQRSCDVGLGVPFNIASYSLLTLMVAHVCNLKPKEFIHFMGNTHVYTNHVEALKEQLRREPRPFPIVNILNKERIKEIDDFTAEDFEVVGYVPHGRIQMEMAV
# Description: Inhibition against Dihydrofolate reductase in Toxoplasma gondii
# [2] = biological target: T2, Dihydrofolate reductase (Pneumocystis carinii, UniProt P16184)
# T2 sequence (P16184 whole entry): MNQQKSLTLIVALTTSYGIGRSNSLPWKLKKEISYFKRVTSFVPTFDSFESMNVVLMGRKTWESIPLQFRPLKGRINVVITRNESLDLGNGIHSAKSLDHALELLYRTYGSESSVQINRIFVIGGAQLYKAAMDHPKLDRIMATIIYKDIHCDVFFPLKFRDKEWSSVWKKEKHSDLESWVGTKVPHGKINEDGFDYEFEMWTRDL
# Description: Inhibition against Dihydrofolate reductase in Pneumocystis carinii
# [3] = biological target: T3, Dihydrofolate reductase (Rattus norvegicus, UniProt Q920D2)
# T3 sequence (Q920D2 whole entry): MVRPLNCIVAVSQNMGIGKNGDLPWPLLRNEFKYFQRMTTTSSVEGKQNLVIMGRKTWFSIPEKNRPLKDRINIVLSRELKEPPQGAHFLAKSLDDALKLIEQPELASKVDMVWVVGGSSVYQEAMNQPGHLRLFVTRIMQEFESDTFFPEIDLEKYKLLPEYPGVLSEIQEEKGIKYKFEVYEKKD
# Description: Inhibition against Dihydrofolate reductase in rat liver
SMILES,IC50 [1],IC50 [2],IC50 [3]
Nc1nc(N)c2c(CSc3ccc4ccccc4c3)c[nH]c2n1,9.2 µM,929 µM,82.9 µM
Nc1nc(N)c2c(CSc3cccc4ccccc34)c[nH]c2n1,0.81 µM,10.6 µM,3 µM
COc1ccc(OC)c(N(C)Cc2c[nH]c3nc(N)nc(N)c23)c1,3.4 µM,> 12 µM,> 12 µM
CN(Cc1c[nH]c2nc(N)nc(N)c12)c1ccc(Cl)c(Cl)c1,1 µM,28.3 µM,3 µM
CN(Cc1c[nH]c2nc(N)nc(N)c12)c1cccc2ccccc12,0.87 µM,209 µM,8.2 µM
COc1ccc(SCc2c[nH]c3nc(N)nc(N)c23)cc1OC,2.6 µM,11.1 µM,16.7 µM
CN(Cc1c[nH]c2nc(N)nc(N)c12)c1ccc(C(=O)N(C)C(CCC(=O)O)C(=O)O)cc1 (centres undefined),0.15 µM,0.044 µM,0.06 µM
Nc1nc(N)c2c(CSc3ccc(Cl)c(Cl)c3)c[nH]c2n1,11.6 µM,58.5 µM,5.3 µM
